The subject of data set [1] is sFlt-1 expression in first trimester placental explants. Kind of data set: sFlt-1 protein immunohistochemistry in villous explants. It is filed as cell-based, human. The following applies: DMOG added to 20% O2 explants vs. 20% O2 without DMOG; IHC. How it is done: Chorionic villous explant culture was performed as previously described (Caniggia, 2000). Briefly, placental tissues (5-8 weeks of gestation, 15 separate sets) were placed in ice-cold PBS and processed within 2 hours of collection. Tissues were aseptically dissected to remove decidual tissue and fetal membranes. Small fragments of placental villi (25-45 mg wet weight) were teased apart, placed on Millicell-CM culture dish inserts (Millipore Corp., Bedford, Mass., USA) pre-coated with 0.15 mL of undiluted Matrigel (Collaborative Biomedical Products, Bedford, Mass., USA), and transferred to a 24-well culture dish. Explants were cultured in serum-free DMEM/F12 (Gibco BRL, Grand Island, N.Y., USA) supplemented with 100 μg/mL streptomycin, 100 U/mL penicillin, and incubated overnight at 37° C. in 5% CO2 in air to allow attachment. […] The morphological integrity and viability of villous explants and their EVT outgrowth and migration were monitored daily for up to 5 days as previously reported (Caniggia, 2000). […]
Paraffin sections were mounted on glass slides, dewaxed in xylene and rehydrated in descending ethanol gradient. […] Finally, avidin biotin complex (Vector Laboratories, Burlingame, Calif.) was applied for 1 hour and staining was detected with the diamino-benzidine chromogen after 5 minutes. […]

Data set [2] concerns villous explants. Kind of data set: TUNEL assay of villous explants. In kind it is cell-based, human. The following applies: DMOG treatment or 3% O2 exposure of explants. How it is done: An in situ cell death detection kit was purchased from Amersham Biosciences, NJ, USA. Terminal deoxynucleotidyl transferase-dUTP-nick end labelling (TUNEL) assays were performed according to instructions provided by the manufacturer. Paraffin sections of tissue were dewaxed in xylene, rehydrated in descending grades of ethanol, and finally soaked in PBS. Tissue sections were pre-treated with Proteinase K (10 μg/mL) in PBS for 10 min, washed and then incubated in 3% hydrogen peroxide in methanol for 45 minutes. After washing in PBS, the slides were preincubated with 1× One Phor All buffer in 0.1% Triton X-100 in water for 30 minutes and then incubated in TdT solution for 1.5 hour at 37° C. Samples were washed in PBS and avidin biotin complex (Vector Laboratories, Burlingame, Calif.) was applied for 1 hour. Staining was detected with the diamino-benzidine chromogen after 10 minutes. Slides were counterstained with haematoxylin, dehydrated in ascending concentrations of ethanol, and fixed with xylene.

For data set [3], the system named is villous explants. Kind of data set: EVT outgrowth of villous explants. In kind it is cell-based, human. Particulars: DMOG-treated explants vs. control explants at 20% O2. As to the method:
(§1) Chorionic villous explant culture was performed as previously described (Caniggia, 2000). Briefly, placental tissues (5-8 weeks of gestation, 15 separate sets) were placed in ice-cold PBS and processed within 2 hours of collection. Tissues were aseptically dissected to remove decidual tissue and fetal membranes. Small fragments of placental villi (25-45 mg wet weight) were teased apart, placed on Millicell-CM culture dish inserts (Millipore Corp., Bedford, Mass., USA) pre-coated with 0.15 mL of undiluted Matrigel (Collaborative Biomedical Products, Bedford, Mass., USA), and transferred to a 24-well culture dish. Explants were cultured in serum-free DMEM/F12 (Gibco BRL, Grand Island, N.Y., USA) supplemented with 100 μg/mL streptomycin, 100 U/mL penicillin, and incubated overnight at 37° C. in 5% CO2 in air to allow attachment. Explants were maintained in standard condition (5% CO2 in 95% air) or in an atmosphere of 3% or 8% O2 (92% or 87% N2 and 5% CO2, respectively) for 72 hrs at 37° C. The morphological integrity and viability of villous explants and their EVT outgrowth and migration were monitored daily for up to 5 days as previously reported (Caniggia, 2000). Explants from more than 10 different placentae in more than 15 separate experiments were used. […]

The test system of data set [4] is sFlt-1 expression in first trimester placental explants. Kind of data set: sFlt-1 mRNA by qRT-PCR in first trimester villous explants (HIF-1 stabilization / knockdown). It is filed as cell-based, human. Particulars: 1.0 mM DMOG, explants at 20% O2; relative level normalized to 18S; 20% O2 alone 1.0±0.03; P<0.05. As to the method: as §1, with “2000).” for “2000). Explants from more than 10 different placentae in more than 15 separate experiments were used.”
Total RNA was isolated from placental samples using a Trizol-based approach according to the manufacturer's protocol (Invitrogen, CA). […] Relative quantitation of data was performed using logarithmic curves. […]

Data set [5] deals with villous explants. Kind of data set: TGFβ treatment of villous explants: endoglin expression. In kind it is cell-based, human. Particulars: villous explants (5-8 wks) vs. non-treated explants. As to the method:
Human placental tissue from first trimester and from discordant dichorionic and monochorionic twins (n=10) and age matched normal twins (n=5) were used as physiological and pathological models of placental hypoxia. In all twins the discordancy was above 25% and absence of end diastolic velocity was documented in the growth-restricted twin. Endoglin mRNA expression was measured by quantitative PCR analysis. Protein expression was measured by Western Blot analysis using endoglin antibodies. Villous explants (5-8 wks) were used to test the effect of both oxygen and TGFβ1 and TGFβ3 on endoglin expression.

In data set [6] the test system is villous explants. Kind of data set: TGFβ treatment of first trimester villous explants: phospho-Smad2/3 and sFlt-1 (Western blot, real-time PCR). It is filed as cell-based, human. The following applies: 5 ng/mL, 24 hours. As to the method: (§2) Early onset (25-33 wks) severe IUGR with abnormal umbilical and uterine artery Doppler and from age-matched normal control tissues were collected. First trimester villous explants and BeWo and JEG-3 choriocarcinoma cell lines were cultured in standard conditions in the presence or absence of TGFβ1 or TGFβ 3 (5 ng/mL) for 24 hours. Message levels of sFlt-1 were measured by quantitative real-time PCR using specific TaqMan primers and probe. Protein expression of sFlt-1 was measured by Western blot using a polyclonal antibody against sFlt-1. In addition, protein lysates from placental tissues, explants and cells lines were analyzed with antibodies that recognize human Smad2, Smad3, Smad7 and phospho-Smad2/3.

Another data set has as its system BeWo cells. As to the kind of experiment: TGFβ treatment of BeWo cells: phospho-Smad2/3 and sFlt-1 (Western blot, real-time PCR). In kind it is cell-based, human. Particulars: 5 ng/mL, 24 hours. How it is done:
as §2

Data set [7] relates to Mcl-1 Cleavage in Human Villous Explants. Kind of data set: Mcl-1 immunoblot of villous explants exposed to hypoxia-reoxygenation with caspase inhibitors. In kind it is cell-based. Particulars: for Mcl-1S amount: 100 μM inhibitor, relative to H/R and untreated tissues; for Mcl-1L cleavage induced by hypoxia-reoxygenation: human villous explants, summary statement. How it is done:
Explant cultures were performed as previously described (Caniggia, 2000). Briefly, placental tissues (5-8 weeks of gestation, 15 sets) were placed in ice-cold PBS and processed within 2 hours of collection. Tissues were aseptically dissected to remove decidual tissue and fetal membranes. Small fragments of placental villi (25-45 mg wet weight) were teased apart, placed on Millicell-CM culture dish inserts (Millipore Corp., Bedford, Mass., USA) pre-coated with 0.15 mL of undiluted Matrigel (Collaborative Biomedical Products, Bedford, Mass., USA), and transferred to a 24-well culture dish. Explants were cultured in serum-free DMEM/F12 (Gibco BRL, Grand Island, N.Y., USA) supplemented with 100 μg/mL streptomycin, 100 U/mL penicillin, and incubated overnight at 37° C. in 5% CO2 in air to allow attachment. Explants were maintained in standard condition (5% CO2 in 95% air) or in an atmosphere of 3% O2/92% N2/5% CO2 for 48 hrs at 37° C. Explants from more than 10 different placentae in more than 15 separate experiments were used. A minimum of 3 explants per experimental condition was used at all times. Explants were exposed to hypoxia-reoxygenation (H/R) as previously described (Hung, 2002; Soleymanlou, 2005) in presence of 100 μM of the pan-caspase inhibitor z-VAD-fmk (BioMol, Plymouth Meeting, Pa.) or caspase-3-specific inhibitor z-DEVD-fmk (R&D Systems, Minneapolis, Minn.) both dissolved in DMSO (equivalent volume of DMSO in absence of inhibitors was used in control conditions).
Western blotting was performed as previously described (MacPhee, 2001). Fifty μg of total protein form placental tissue or cell line was subjected to 12% (wt/vol) SDS-PAGE. Membranes were probed at 4° C. overnight with a 1:1000 dilutions of primary antibodies:rabbit polyclonal Mtd antibody capable of recognizing all isoforms as previously reported (Soleymanlou, 2005); Mcl-1-specific rabbit polyclonal antibody (SC-819 clone S-19 from Santa Cruz Biotechnology, Santa Cruz, Calif.); specific cleaved caspase-3 (Asp175) (5Al) and cleaved caspase-8 (Asp374) rabbit polyclonal antibodies (Cell Signaling, Beverly, Mass.). For anti-Mtd and Mcl-1 antibodies, pre-immune serum and competing peptides were used as controls. A rabbit polyclonal antibody was generated against N-terminal amino acids (28-41) of syncytin (NM_014590) and pre-immune serum was used as control. After overnight incubation, membranes were washed with TBS/T and incubated for 60 minutes at room temperature with 1:5000 diluted horseradish peroxidase-conjugated anti-rabbit (Santa Cruz Biotechnology). Blots were exposed to chemiluminescent ECL-plus reagent (Amersham, Piscataway, N.J.). All blots were confirmed for equal protein loading at all time using ponceau staining.

Where [8] appears, read: explants under H/R, 100 μM inhibitor in DMSO, immunoblot.

Residues, ends and D or L forms follow the SMILES beside them. *: point of attachment. Cbz = O=C(OCc1ccccc1)*; CH2F = FC*

Consider `COC(=O)CNC(=O)C(=O)OC` [DMOG, dimethyloxalyl-glycin], for which, in data set [1], the “sFlt-1 protein expression in trophoblast layers including EVT” value is reported as “increased”. The “apoptosis (TUNEL)” value in the data set with villous explants [2] is recorded as “not likely due to an increased incidence of apoptosis”. In addition, the explant outgrowth result in the data set on villous explants [3] is “typical low oxygen-induced outgrowth”. Moreover, in data set [4], the “sFlt-1 mRNA expression” value is given as 2.4±0.2.
On to transforming growth factor β1 [TGFβ1], for which, in the data set with villous explants [5], the “expression of membrane endoglin” value is “increased” and the “expression of soluble endoglin” value is on record as “increased”. In addition, in the data set with villous explants [6], the phospho-Smad2 protein expression entry was “increased”, the phospho-Smad3 protein expression entry is given as “increased”, the “sFlt-1 mRNA level” value is “significant increase” and the sFlt-1 protein level result is listed as “significant increase”. Also, in the data set with BeWo cells, the phospho-Smad2 protein expression result is recorded as “increased”, the phospho-Smad3 protein expression entry was “increased”, the “sFlt-1 mRNA level” value was “significant increase” and the sFlt-1 protein level result is “significant increase”.
As to `COC(=O)CC[C@H](NC(=O)[C@H](CC(=O)OC)NC(=O)OCc1ccccc1)C(=O)N[C@H](C(=O)N[C@@H](CC(=O)OC)C(=O)CF)C(C)C` [z-DEVD-fmk], the “p29 Mcl-1 (Mcl-1c) band / formation from Mcl-1L” value in data set [7] (setting [8]) was “prevented”. The Mcl-1S amount entry in data set [7] (explants under H/R) was “increased”. In data set [7], the “Mcl-1L cleavage induced by hypoxia-reoxygenation” value was “prevented”.
Consider `COC(=O)C[C@H](NC(=O)[C@H](C)NC(=O)[C@@H](NC(=O)OCc1ccccc1)C(C)C)C(=O)CF` [z-VAD-fmk] (Cbz-Val-Ala-Asp(OMe)-CH2F), for which, in data set [7] (setting [8]), the Mcl-1L content result is listed as “restored” and the “p29 Mcl-1 (Mcl-1c) band / formation from Mcl-1L” value is recorded as “abrogated”. The Mcl-1S amount entry in data set [7] (explants under H/R) is on record as “increased”. For the same molecule, in data set [7], the “Mcl-1L cleavage induced by hypoxia-reoxygenation” value was “prevented”.

B1: transforming growth factor β3 (protein, UniProt P10600 301-412, looked up)
Transforming growth factor …: ALDTNYCFRNLEENCCVRPLYIDFRQDLGWKWVHEPKGYYANFCSGPCPYLRSADTTHSTVLGLYNTLNPEASASPCCVPQDLEPLTILYYVGRTPKVEQLSNMVVKSCKCS
notes: transforming growth factor β3 added to explant and cell cultures
Regarding B1, in the data set on villous explants [5], the “expression of membrane endoglin” value is “increased” and the “expression of soluble endoglin” value is on record as “increased”. Further, in the data set with villous explants [6], the phospho-Smad2 protein expression result is given as “increased”, the phospho-Smad3 protein expression entry was “increased”, the “sFlt-1 mRNA level” value is “significant increase” and the sFlt-1 protein level result is “significant increase”. For the same molecule, in the data set with BeWo cells, the phospho-Smad2 protein expression entry is “increased”, the phospho-Smad3 protein expression entry is “increased”, the “sFlt-1 mRNA level” value is “significant increase” and the sFlt-1 protein level result is given as “significant increase”.

Values taken from US20090246773A1, “DIAGNOSTIC COMPOSITIONS AND TREATMENT METHODS FOR CONDITIONS INVOLVING TROPHOBLAST CELL DEATH, DIFFERENTIATION, INVASION AND/OR CELL FUSION AND TURNOVER” (Mount Sinai Hospital, priority 2006, published 2009).
